Results published in patent US20230271956A1, “AMIDE DERIVATIVES” (Merck Patent GmbH, priority 2020, published 2023).

Tests used:
human rec ACSS2 = target: T1, human rec ACSS2 (Homo sapiens, UniProt Q9NR19); assay: Biochemical activity ACSS2 assay (AMP-Glo); details: human recombinant ACSS2, AMP-Glo, 180 min at 37° C.
T1 construct: myc (C); purchased Origene
Experimental: The biochemical activity assay for ACSS2 is based on the detection of released AMP by AMP-Glo ™ Assay kit (Promega, Madison). The assay is run in three steps: the enzymatic reaction in which human rec ACSS2 activates acetate with ATP and Coenzyme A as cosubstrates to acetyI-coA thereby releasing AMP and the detection reaction of AMP by AMP Glo assay in which after the destruction of the residual ATP with AMP Glo reagent 1 produced AMP is converted to ATP that is measured in a luciferase assay system (detection reagent). The ACSS2 activity correlates with the detected luminescence signal.
The assay was performed in Perkin Elmer 384well white Proxiplates in a total volume of 8 µl.
1 nM (fc) C-term myc tagged ACSS2 (human, recombinant, Origene, Rockville, US) and a mixture of 100 µM (fc) ATP, 100 µM (fc) Coenzyme A and 500 µM (fc) sodium acetate were incubated in a total volume of 5 µl (50 mM Hepes, 1 mM Mg-chloride, 150 mM NaCl, 1 mM DTT, 0.01 % (w/v) BSA, 0.3 % DMSO, pH 7.5) in the absence or presence of the test compound (10 dilution concentrations, start conc 30 µM) for 180 min at 37° C. The reaction was stopped and residual ATP destroyed by the addition of 1 µl AMP Glo reagent solution (Promega, Madison, US). After 1 h incubation at room temperature 2 µl of AMP Glo detection reagent was added and the assay was incubated for 0.75 hr at room temperature. The luminescence signal was measured with an Envision multimode reader (Perkin Elmer LAS Germany GmbH) at 700 nm in luminescence mode. The full value used was the inhibitor-free reaction. The pharmacological zero value was generated by addition of ACSS2 inhibitor (Ac-CoA Synthase Inhibitor - CAS 508186-14-9 -Calbiochem) in a final concentration of 5 µM. The inhibitory values (IC50) were determined using the program Assay Analyzer® from GeneData.

ACSS2 = target: T2, ACSS2 (Homo sapiens, UniProt Q9NR19); assay: Cellular assay of 14C acetate incorporation into histones (IC50 ACSS2 cellular histone); assay type: cell-based; details: HCT-15 cells
T2 construct: endogenous fatty acid synthesis activity in the human HCT-15 cancer cell line; endogenous in cells; host or cells: HCT-15
T2 sequence (Q9NR19 whole entry): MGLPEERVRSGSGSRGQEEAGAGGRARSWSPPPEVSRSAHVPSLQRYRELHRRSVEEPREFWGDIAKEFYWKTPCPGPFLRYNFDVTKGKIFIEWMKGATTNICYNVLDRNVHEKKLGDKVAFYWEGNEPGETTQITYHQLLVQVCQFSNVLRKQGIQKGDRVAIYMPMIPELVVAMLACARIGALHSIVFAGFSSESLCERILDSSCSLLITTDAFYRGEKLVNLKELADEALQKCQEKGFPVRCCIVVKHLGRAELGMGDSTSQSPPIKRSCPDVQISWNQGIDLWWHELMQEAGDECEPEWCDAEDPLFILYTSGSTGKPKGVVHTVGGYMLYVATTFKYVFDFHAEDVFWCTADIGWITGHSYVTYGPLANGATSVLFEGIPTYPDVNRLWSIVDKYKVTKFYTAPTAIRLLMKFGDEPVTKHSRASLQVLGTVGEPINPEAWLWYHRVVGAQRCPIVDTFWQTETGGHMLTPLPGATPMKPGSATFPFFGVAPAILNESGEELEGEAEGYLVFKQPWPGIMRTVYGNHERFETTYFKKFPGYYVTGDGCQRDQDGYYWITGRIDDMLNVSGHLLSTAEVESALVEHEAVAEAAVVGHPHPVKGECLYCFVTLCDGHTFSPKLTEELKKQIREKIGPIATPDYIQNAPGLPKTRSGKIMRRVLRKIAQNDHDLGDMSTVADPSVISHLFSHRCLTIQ
Experimental: This protocol describes a cellular assay capable to quantify endogenous histone acetylation activity in the human HCT-15 cancer cell line following the incorporation of extracellularly administered radiolabeled ^14C acetate with a scintillation based read out on acid extracted histones.
HCT-15 cells are trypsinized, washed and suspended in DMEM culture medium supplemented with penicillin/streptomycin (100 U/mL), sodium pyruvate (1 mM), and 10% FBS
Compounds serial dilutions are prepared in 96-well V-bottom microplate from 10 mM stock solutions in DMSO. From these dilutions 0.5 µl are transferred to a fresh plate including pure DMSO as negative control. The dilutions are prepared such, that the final concentration in the assay is 1/400 of the concentration in the serial dilution. The final DMSO concentration in the assay is 0.25 %.
The cell suspension is seeded at densities of 2x10^5 cells per 170 µl into individual wells of a 96 well plate each containing 0.5 µl aliquots of compound serial dilutions and are kept for 1h in a cell incubator. To each well 30 µL of a mixture containing 0.5 mCi/mL of ^14C-acetate with full medium are added. Then, the wells are incubated for 3 hrs in the cell incubator.
Further steps of the procedure should be conducted on ice or instrumentations precooled to 4° C. Cells are sedimented in the 96-well V-bottom microplate by centrifugation (Eppendorf 5804 R) at 1200 rpm for 5 min. The supernatant is removed and the cells are washed twice with 200µL of PBS-NaB (5 mM sodium butyrate) buffer by iterative resuspension and centrifugation. Finally, the cells are resuspended in 50 µL of TEB (PBS-NaB + 0.5 % Triton X-100) and left on ice for 10 minutes. After centrifugation at 2300 rpm for 10 minutes at 4° C. the supernatant is removed, the remaining pellet is suspended in 50 µL of 0.2 M HCl and incubated over night at 4° C. After incubation the well plate is shaken for 2 minutes in a MTP plate shaker set to 1200 rpm and then centrifuged at 3700 rpm for 10 mins. The lysate is carefully aspirated (~43 µL) and transferred into a white MTP plate (Greiner bio-one 65509). 90 µL of Ultima Gold XR scintillation cocktail are added and the plates are sealed with a transparent cover tape before mixing vigorously using plate shaker set to 1200 rpm. Radioactivity from ^14C incorporation in the wells is measured as CPM count in a MicroBeta Trilux luminescence counter.

T1 sequence (Q9NR19 whole entry): as above

SMILES	IC50 (human rec ACSS2)	IC50 (ACSS2)
CCc1nc(CNC(=O)c2cc3c(nc2OC)nc(C(O)(c2ccccc2)c2ccccc2)n3CC)no1 [Compound 63, 1-ethyl-N-[(5-ethyl-1,2,4-oxadiazol-3-yl)methyl]-2-(hydroxydiphenylmethyl)-5-methoxy-1H-imidazo[4,5-b]pyridine-6-carboxamide]	100 to 10000 nM	10 to 100 nM
CCn1c(C(O)(c2ccccc2)c2ccccc2)nc2nc(Cl)c(C(=O)Nc3cnn(CCOC)c3)cc21 [Compound 67, 5-chloro-1-ethyl-2-(hydroxydiphenylmethyl)-N-[1-(2-methoxyethyl)-1H-pyrazol-4-yl]-1H-imidazo[4,5-b]pyridine-6-carboxamide]	10 to 100 nM	10 to 100 nM
CCn1c(C(O)(c2ccccc2)c2ccccc2)nc2nc(OC)c(C(=O)Nc3cnn(CCOC)c3)cc21 [Compound 70, 1-ethyl-2-(hydroxydiphenylmethyl)-5-methoxy-N-[1-(2-methoxyethyl)-1H-pyrazol-4-yl]-1H-imidazo[4,5-b]pyridine-6-carboxamide]	10 to 100 nM	10 to 100 nM
CCn1ccc(NC(=O)c2cc3c(nc2OC)nc(C(O)(c2ccccc2)c2ccccc2)n3CC)n1 [Compound 77, 1-ethyl-N-(1-ethyl-1H-pyrazol-3-yl)-2-(hydroxydiphenylmethyl)-5-methoxy-1H-imidazo[4,5-b]pyridine-6-carboxamide]	1 to 10 nM	1 to 10 nM
CCn1cnc(NC(=O)c2cc3c(nc2Cl)nc(C(O)(c2ccccc2)c2ccccc2)n3CC)c1 [Compound 82, 5-chloro-1-ethyl-N-(1-ethyl-1H-imidazol-4-yl)-2-(hydroxydiphenylmethyl)-1H-imidazo[4,5-b]pyridine-6-carboxamide]	1 to 10 nM	0.01 to 1 nM
CCn1cnc(NC(=O)c2cc3c(nc2Cl)nc(C(O)(c2ccccc2)c2ccccc2)n3CC)n1 [Compound 99, 5-chloro-1-ethyl-N-(1-ethyl-1H-1,2,4-triazol-3-yl)-2-(hydroxydiphenylmethyl)-1H-imidazo[4,5-b]pyridine-6-carboxamide]	1 to 10 nM	0.01 to 1 nM
CCn1cnc(NC(=O)c2cc3c(nc2Cl)nc(C(O)(c2ccccc2F)c2ccccc2F)n3CC)n1 [Compound 100, 2-[bis(2-fluorophenyl)(hydroxy)methyl]-5-chloro-1-ethyl-N-(1-ethyl-1H-1,2,4-triazol-3-yl)-1H-imidazo[4,5-b]pyridine-6-carboxamide]	0.01 to 1 nM	1 to 10 nM
CCn1cc(NC(=O)c2cc3c(nc2Cl)nc(C(O)(c2ccccc2F)c2ccccc2F)n3CC)cn1 [Compound 101, 2-[bis(2-fluorophenyl)(hydroxy)methyl]-5-chloro-1-ethyl-N-(1-ethyl-1H-pyrazol-4-yl)-1H-imidazo[4,5-b]pyridine-6-carboxamide]	1 to 10 nM	0.01 to 1 nM
CCn1cc(NC(=O)c2cc3c(nc2OC)nc(C(O)(c2ccccc2)c2ccccc2)n3CC)cn1 [Compound 105, 1-ethyl-N-(1-ethyl-1 H-pyrazol-4-yl)-2-(hydroxydiphenylmethyl)-5-methoxy-1 H-imidazo[4,5-b]pyridine-6-carboxamide]	1 to 10 nM	1 to 10 nM
CCn1cnc(NC(=O)c2cc3c(nc2C)nc(C(O)(c2ccccc2F)c2ccccc2F)n3CC)n1 [Compound 106, 2-[bis(2-fluorophenyl)(hydroxy)methyl]-1-ethyl-N-(1-ethyl-1H-1,2,4-triazol-3-yl)-5-methyl-1H-imidazo[4,5-b]pyridine-6-carboxamide]	1 to 10 nM	1 to 10 nM
CCn1cc(NC(=O)c2cc3c(nc2C)nc(C(O)(c2ccccc2)c2ccccc2)n3CC)cn1 [Compound 109, 1-ethyl-N-(1-ethyl-1H-pyrazol-4-yl)-2-(hydroxydiphenylmethyl)-5-methyl-1H-imidazo[4,5-b]pyridine-6-carboxamide]	1 to 10 nM	1 to 10 nM
CCn1cnc(NC(=O)c2cnc3nc(C(O)(c4ccccc4F)c4ccccc4F)n(CC)c3c2)n1 [Compound 110, 2-[bis(2-fluorophenyl)(hydroxy)methyl]-1-ethyl-N-(1-ethyl-1H-1,2,4-triazol-3-yl)-1H-imidazo[4,5-b]pyridine-6-carboxamide]	1 to 10 nM	1 to 10 nM
CCn1cc(NC(=O)c2cnc3nc(C(O)(c4ccccc4F)c4ccccc4F)n(CC)c3c2)cn1 [Compound 112, 2-[bis(2-fluorophenyl)(hydroxy)methyl]-1-ethyl-N-(1-ethyl-1H-pyrazol-4-yl)-1H-imidazo[4,5-b]pyridine-6-carboxamide]	10 to 100 nM	10 to 100 nM
CCn1cc(NC(=O)c2cnc3nc(C(O)(c4ccccc4)c4ccccc4)n(CC)c3c2)cn1 [Compound 113, 1-ethyl-N-(1-ethyl-1H-pyrazol-4-yl)-2-(hydroxydiphenylmethyl)-1H-imidazo[4,5-b]pyridine-6-carboxamide]	10 to 100 nM	10 to 100 nM
CCn1cc(NC(=O)c2cnc3nc(C(O)(c4ccccc4)c4ccccc4)n(C)c3c2)cn1 [Compound 114, N-(1-ethyl-1H-pyrazol-4-yl)-2-(hydroxydiphenylmethyl)-1-methyl-1H-imidazo[4,5-b]pyridine-6-carboxamide]	10 to 100 nM	10 to 100 nM
